Patent US8592396B2, “Glucokinase activators and methods of using same” (Bristol-Myers Squibb Company, priority 2010, dated 2013)

How the values were obtained:
Human Glucokinase = target: T1, Human Glucokinase (Homo sapiens, UniProt P35557); assay: Glucokinase tandem enzymatic assay; type: biochemical; conditions: 12 mM glucose; for Emax: expressed as a % of basal activation, read-out: Maximal activation (%) Human Glucokinase @ 12 mM Glucose
T1 construct: Full-length human hepatic GK (untagged) was expressed; made in house; host or cells: E. coli BL21 STAR (DE3)pLysS
T1 sequence (P35557 1-466 isoform P35557-2): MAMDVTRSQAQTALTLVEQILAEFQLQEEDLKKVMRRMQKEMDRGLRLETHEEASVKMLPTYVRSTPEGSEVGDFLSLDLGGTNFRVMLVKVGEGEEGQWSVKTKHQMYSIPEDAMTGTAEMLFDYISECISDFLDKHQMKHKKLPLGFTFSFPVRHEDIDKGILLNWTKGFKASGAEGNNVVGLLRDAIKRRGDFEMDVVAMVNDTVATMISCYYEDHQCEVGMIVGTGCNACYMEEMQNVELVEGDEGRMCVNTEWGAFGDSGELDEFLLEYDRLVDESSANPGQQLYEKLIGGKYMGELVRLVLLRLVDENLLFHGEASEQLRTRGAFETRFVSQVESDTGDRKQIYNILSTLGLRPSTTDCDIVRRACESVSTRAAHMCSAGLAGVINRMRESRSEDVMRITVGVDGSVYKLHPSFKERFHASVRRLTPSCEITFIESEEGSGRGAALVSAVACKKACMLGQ
Description: Glucokinase Tandem Enzymatic Assay
Enzymatic activity of human glucokinase (GK) was measured by incubating GK, ATP, and glucose for discrete time periods followed by quenching with EDTA (ethylenediamine tetra-acetic acid). Relative amounts of product glucose-6-phosphate (G6P) were measured by then running a detection assay using G6P dehydrogenase and measuring the conversion of ThioNAD (thio-nicotinamide adenine dinucleotide) to ThioNADH (thio-dihydronicotinamide adenine dinucleotide) at a wavelength of 405 nm. This “uncoupled” enzymatic reaction is denoted as the GK “tandem” assay. Activation of GK by compounds can be assessed using this assay. The GK tandem assay protocol described below was followed using a range of activator compound concentrations from 0 to 100 μM at 5 and 12 mM of glucose. Human full-length glucokinase (GK, 15 nM) was incubated with 5 or 12 mM glucose in a 384 well black microtiter plate with a clear bottom. To initiate the GK reaction, magnesium-ATP (3 mM final concentration) was added to GK in buffer (final buffer conditions of 25 mM HEPES buffer, pH 7.1, containing 1 mM dithiothreitol and 5% DMSO). The total reaction volume was 20 μL. The reaction was allowed to proceed for ten minutes and was then quenched with 5 μL EDTA; 45 mM final). The components of the detection reaction, ThioNAD and G6PDH (glucose-6-phosphate dehydrogenase) (final concentrations of 650 μM and 3.33 Units, respectively), were then added together in a volume of 25 μL, (to give a total volume of 50 μL). Absorbance measurements were made at 405 nm on a SPECTRAMAX® Plus 384 absorbance plate reader (Molecular Devices). Absorbance was read, background glucose-6-phosphate levels were subtracted, after which activation was calculated as a percentage of control activity. Control activity was determined using GK in the presence of vehicle (DMSO), with background glucose-6-phosphate subtracted. Background glucose-6-phosphate was determined by pre-quenching GK with EDTA prior to reaction initiation with ATP.
Expression and Purification of Human GK
Full-length human hepatic GK (untagged) was expressed in BL21 STAR (DE3)pLysS cells (Invitrogen) at 25° C. as described by Mookhtiar et al. (1). The protein was purified essentially as described by Lange (2) with a slight modification. Briefly, cell pellets were lysed via three rounds of freezing and thawing, centrifuged at 15000 g for clarification, and precipitated with 40-65% (NH4)2SO4. The resulting pellet was resuspended in buffer, dialyzed, and applied directly to a Q-SEPHAROSE® (Sigma) column followed by elution with a linear 100-600 mM KCl gradient. GK containing fractions were pooled, dialyzed overnight vs. 25 mM Hepes pH 7.2/1 mM MgCl2/1 mM EDTA/0.1 M KCl/1 mM DTT, then dialyzed again with same buffer with 10% glycerol added.

[1] = tested on: male DIO (diet-induced obese) C57BL/6J mice; assay: Oral glucose tolerance test (OGTT) in DIO mice; type: in vivo; conditions: 30 μmol/kg given orally 60 min before 2 g/kg oral glucose; DIO C57BL/6J mice; ΔAUC 0-120 min
Description: In Vivo Studies: Oral Glucose Tolerance Test (OGTT)
Oral glucose tolerance tests were carried out on male DIO (diet-induced obese) C57BL/6J mice fed a high fat diet (60% kcal from fat) for 26 weeks prior to experimentation. Mice were fasted overnight before use for experiments. A test compound or vehicle (either: 1) 40% PEG 400+10% Cremophore+50% water or 2) 10% dimethyl acetamide+10% ethanol+10% Cremophore+70% water) was given orally 60 min before oral administration of a glucose solution at a dose of 2 g/kg body weight (oral glucose tolerance test; OGTT). Blood glucose levels were measured from tail-bled samples taken at different time points before and after administration of glucose (time course of 2 hours). A time curve of the blood glucose was generated and the change from baseline area-under-the curve (ΔAUC) from 0-120 min was calculated (the time glucose administration being time zero).

Row | SMILES | EC50 (Human Glucokinase) | Emax (Human Glucokinase) | Reduction in Glucose AUC at 30 μmol/kg dose [1]
1 | CCOP(C)(=O)Cn1ccc(Nc2ncnc3ccc(OC(C)C)cc23)n1 (racemic) [Example 3] | 810 nM | 134% | 
2 | CCOP(C)(=O)Cc1csc(Nc2ncnc3ccc(OC(CF)CF)cc23)n1 (racemic) [Example 6] | 390 nM |  | 
3 | CCOP(=O)(Cc1csc(Nc2ncnc3ccc(OC(CF)CF)cc23)n1)OCC [Example 1] | 91 nM | 145% | 93%
4 | CCOP(=O)(Cc1csc(Nc2ncnc3ccc(OC(C)C)cc23)n1)OCC [Example 2] | 136 nM |  | 
5 | CCOP(=O)(Cc1csc(Nc2ncnc3ccc(O[C@@H](C)COC)cc23)n1)OCC [Example 4] |  | 180% | 
